Source: patent publication US12016355B2, “Stevia composition” (PURECIRCLE SDN BHD, priority 2011, dated 2024)
Read-outs that look alike come from different tables or passages of the source.

Experiments:
[1] = as usually found, literature; cited from earlier work
[2] = Sweetness factor (SF) determination by trained panel in water; details: in water, 5% SE
Protocol: The sweetness factors for different sweetener from all major groups were measured by tasting several concentrations of each sweetener in water by trained panel. From the sensory test at a, the concentration (%) that corresponds to the 5% sucrose equivalent (SE) sweetness were estimated and listed in Table 2. The sweetness equivalent (SE) of high intensity sweeteners (HIS) varies according to the target sugar equivalent sweetness levels, that are tested as shown in Table 3.

[3] = Sugar equivalent sweetness of sweetener/Reb B combinations in plain water, trained panel; details: plain water
Protocol: In one embodiment, Reb B was combined (at 50, 150 and 300 ppm) with several sweeteners listed in Table 2 to make solutions in plain water. Some of the sweeteners were tested at two different concentrations to obtain around 2% sugar equivalent sweetness without any Reb B. A trained panel conducted sensory tests to determine the effect of the addition of different amounts of Reb B to each sweetener on overall sweetness quality and intensity as shown in Table 4.

[4] = type: physicochemical
Protocol: Hereinafter, unless specified otherwise the solubility of material is determined in reverse osmosis (RO) water at room temperature. Where the solubility is expressed as “%” it to be understood as number of grams of material soluble in 100 grams of solvent.
The temperature was increased at 1° C. per minute to 121° C. The mixture was maintained at 121° C. for 1 hour and then the temperature was decreased to 80° C., at 1° C. per minute, and the obtained solution was spray dried using YC-015 laboratory spray drier (Shanghai Pilotech Instrument & Equipment Co. Ltd., China) operating at 175° C. inlet and 100° C. outlet temperature. Solution was maintained at 80° C. to prevent premature crystallization.
Solubility were evaluated for Reb A, Reb B, mechanical blends of Reb A and Reb B powders of different ratios, and mixtures of Reb A and Reb B prepared according to process described in EXAMPLE 1.

[5] = room temperature; reported values; cited from earlier work

Which “times sweeter than sucrose” value [1] does the source give for `C=C1C[C@@]23CC[C@H]4[C@@](C)(CCC[C@@]4(C)C(=O)O[C@@H]4O[C@H](CO)[C@@H](O)[C@H](O)[C@H]4O)[C@@H]2CC[C@]1(O[C@@H]1O[C@H](CO)[C@@H](O)[C@H](O)[C@H]1O[C@@H]1O[C@@H](C)[C@H](O)[C@@H](O)[C@H]1O)C3` [Dulcoside A] here?
The value was 30 times.

With `OC[C@H]1O[C@@](CO)(O[C@H]2O[C@H](CO)[C@@H](O)[C@H](O)[C@H]2O)[C@@H](O)[C@@H]1O` [Sugar] as the molecule, how does the “Calculated SF (sweetness factor)” value [2] read?
Its value is 1.

And the “Usage Level, % (concentration corresponding to 5% sucrose equivalent sweetness)” value (from here on “Usage Level, %”) [2]?
The value was 5%.

For `C=C1C[C@@]23CC[C@H]4[C@@](C)(CCC[C@@]4(C)C(=O)O[C@@H]4O[C@H](CO)[C@@H](O)[C@H](O)[C@H]4O)[C@@H]2CC[C@]1(O[C@@H]1O[C@H](CO)[C@@H](O)[C@H](O[C@@H]2O[C@H](CO)[C@@H](O)[C@H](O)[C@H]2O)[C@H]1O[C@@H]1O[C@@H](C)[C@H](O)[C@@H](O)[C@H]1O)C3` [Rebaudioside C], which “times sweeter than sucrose” value [1] is on record?
The value was 40-60 times.

For `OC[C@@H](O)[C@@H](O)CO` [Erythritol], which “Calculated SF (sweetness factor)” value [2] is on record?
The value was 0.67.

What about the “Usage Level, %” value [2] of the same molecule?
The value was 7.49%.

And the “Sugar equivalent sweetness (SE) of Sweetener/Reb B combination” value ([3]; 0 ppm Reb B, listed as Erythritol (3.5%))?
The value was 1-1.5%.

What about the “Sugar equivalent sweetness (SE) of Sweetener/Reb B combination” value ([3]; 0 ppm Reb B, listed as Erythritol (5.0%)) of the same molecule?
Its value is 3%.

And the “Sugar equivalent sweetness (SE) of Sweetener/Reb B combination” value ([3]; 50 ppm Reb B, listed as Erythritol (3.5%))?
Its value is 3%.

And the “Sugar equivalent sweetness (SE) of Sweetener/Reb B combination” value ([3]; 50 ppm Reb B, listed as Erythritol (5.0%))?
The value was 4%.

What about the “Sugar equivalent sweetness (SE) of Sweetener/Reb B combination” value ([3]; 150 ppm Reb B, listed as Erythritol (3.5%)) of the same molecule?
The value was 5.5-6%.

What about the “Sugar equivalent sweetness (SE) of Sweetener/Reb B combination” value ([3]; 150 ppm Reb B, listed as Erythritol (5.0%)) of the same molecule?
The value was 8%.

And the “Sugar equivalent sweetness (SE) of Sweetener/Reb B combination” value ([3]; 300 ppm Reb B, listed as Erythritol (3.5%))?
Its value is 9%.

What about the “Sugar equivalent sweetness (SE) of Sweetener/Reb B combination” value ([3]; 300 ppm Reb B, listed as Erythritol (5.0%)) of the same molecule?
Its value is 9.5%.

For `C[C@H](CC[C@@H](O[C@@H]1O[C@H](CO[C@@H]2O[C@H](CO)[C@@H](O)[C@H](O)[C@H]2O)[C@@H](O)[C@H](O)[C@H]1O[C@@H]1O[C@H](CO)[C@@H](O)[C@H](O)[C@H]1O)C(C)(C)O)[C@H]1CC[C@@]2(C)[C@@H]3CC=C4[C@@H](CC[C@H](O[C@@H]5O[C@H](CO[C@@H]6O[C@H](CO)[C@@H](O)[C@H](O)[C@H]6O)[C@@H](O)[C@H](O)[C@H]5O)C4(C)C)[C@]3(C)[C@H](O)C[C@]12C` [Mogroside V (70%), Mogroside V], which “Calculated SF (sweetness factor)” value [2] is on record?
Its value is 236.

What about the “Usage Level, %” value [2] of the same molecule?
Its value is 0.0212%.

And the “Sugar equivalent sweetness (SE) of Sweetener/Reb B combination” value ([3]; 0 ppm Reb B, listed as Mogroside V (100 ppm))?
Its value is 2.5%.

What about the “Sugar equivalent sweetness (SE) of Sweetener/Reb B combination” value ([3]; 0 ppm Reb B, listed as Mogroside V (212 ppm)) of the same molecule?
Its value is 5.5-6%.

And the “Sugar equivalent sweetness (SE) of Sweetener/Reb B combination” value ([3]; 50 ppm Reb B, listed as Mogroside V (100 ppm))?
Its value is 4%.

What about the “Sugar equivalent sweetness (SE) of Sweetener/Reb B combination” value ([3]; 50 ppm Reb B, listed as Mogroside V (212 ppm)) of the same molecule?
Its value is 7%.

And the “Sugar equivalent sweetness (SE) of Sweetener/Reb B combination” value ([3]; 150 ppm Reb B, listed as Mogroside V (100 ppm))?
The value was 5.5%.

What about the “Sugar equivalent sweetness (SE) of Sweetener/Reb B combination” value ([3]; 150 ppm Reb B, listed as Mogroside V (212 ppm)) of the same molecule?
The value was 9%.

What about the “Sugar equivalent sweetness (SE) of Sweetener/Reb B combination” value ([3]; 300 ppm Reb B, listed as Mogroside V (100 ppm)) of the same molecule?
Its value is 8-8.5%.

And the “Sugar equivalent sweetness (SE) of Sweetener/Reb B combination” value ([3]; 300 ppm Reb B, listed as Mogroside V (212 ppm))?
Its value is 10-10.5%.

Which “Calculated SF (sweetness factor)” value [2] does the source give for Rebaudioside D [Reb D] here?
Its value is 291.

What about the “Usage Level, %” value [2] of the same molecule?
Its value is 0.0172%.

What about the water solubility [4] of the same molecule?
The water solubility was 0.03%.

What about the water solubility [5] of the same molecule?
Its water solubility is 0.01-0.05%.

What does the source list for `OC[C@H]1O[C@H](O[C@]2(CCl)O[C@H](CCl)[C@@H](O)[C@@H]2O)[C@H](O)[C@@H](O)[C@H]1Cl` [Sucralose]?
Calculated SF (sweetness factor) [2]: 602; Usage Level, % (concentration corresponding to 5% sucrose equivalent sweetness) [2]: 0.0083%; Sugar equivalent sweetness (SE) of Sweetener/Reb B combination ([3]; 0 ppm Reb B, listed as Sucralose 83 ppm): 5%; Sugar equivalent sweetness (SE) of Sweetener/Reb B combination ([3]; 0 ppm Reb B, listed as Sucralose (40 ppm)): 2-2.5%; Sugar equivalent sweetness (SE) of Sweetener/Reb B combination ([3]; 50 ppm Reb B, listed as Sucralose 83 ppm): 7%; Sugar equivalent sweetness (SE) of Sweetener/Reb B combination ([3]; 50 ppm Reb B, listed as Sucralose (40 ppm)): 5%; Sugar equivalent sweetness (SE) of Sweetener/Reb B combination ([3]; 150 ppm Reb B, listed as Sucralose 83 ppm): 11%; Sugar equivalent sweetness (SE) of Sweetener/Reb B combination ([3]; 150 ppm Reb B, listed as Sucralose (40 ppm)): 7.5-8%; Sugar equivalent sweetness (SE) of Sweetener/Reb B combination ([3]; 300 ppm Reb B, listed as Sucralose 83 ppm): 14%; Sugar equivalent sweetness (SE) of Sweetener/Reb B combination ([3]; 300 ppm Reb B, listed as Sucralose (40 ppm)): 11%

With `OC[C@@H](O)[C@@H](O[C@H]1O[C@H](CO)[C@@H](O)[C@H](O)[C@H]1O)[C@H](O)[C@@H](O)CO` [Maltitol] as the molecule, how does the “Calculated SF (sweetness factor)” value [2] read?
The value was 0.77.

And the “Usage Level, %” value [2]?
Its value is 6.44%.

And the “Sugar equivalent sweetness (SE) of Sweetener/Reb B combination” value ([3]; 0 ppm Reb B)?
The value was 5%.

What about the “Sugar equivalent sweetness (SE) of Sweetener/Reb B combination” value ([3]; 50 ppm Reb B) of the same molecule?
Its value is 6%.

And the “Sugar equivalent sweetness (SE) of Sweetener/Reb B combination” value ([3]; 150 ppm Reb B)?
Its value is 9%.

What about the “Sugar equivalent sweetness (SE) of Sweetener/Reb B combination” value ([3]; 300 ppm Reb B) of the same molecule?
The value was 12%.
